Test results from PubChem BioAssay (NCI).
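1) Cells in 96-well plates. 2) Compound, 48 h, 5 concentrations. 3) Linear interpolation between surrounding doses. 4) Unreached endpoint = highest concentration. At the TGI there is no net growth.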

Assays:
Assay in all cases: NCI anticancer screen, dose series, 48 h
[1] = tested on: UO-31 renal
[2] = tested on: MOLT-4 leukemia
[3] = tested on: OVCAR-4 ovarian
[4] = tested on: NCI-H522 lung
[5] = tested on: SNB-19 CNS
[6] = tested on: KM12 colon
[7] = tested on: SN12C renal
[8] = tested on: SK-OV-3 ovarian
[9] = tested on: SK-MEL-28 melanoma
[10] = tested on: MCF7 breast
[11] = tested on: RPMI-8226 leukemia
[12] = tested on: SK-MEL-2 melanoma
[13] = tested on: OVCAR-5 ovarian
[14] = tested on: M14 melanoma
[15] = tested on: NCI-H460 lung
[16] = tested on: COLO 205 colon
[17] = tested on: HCC-2998 colon
[18] = tested on: NCI-H226 lung
[19] = tested on: CCRF-CEM leukemia
[20] = tested on: EKVX NSCLC

| SMILES | TGI [1] [µM] | TGI [2] [µM] | TGI [3] [µM] | TGI [4] [µM] | TGI [5] [µM] | TGI [6] [µM] | TGI [7] [µM] | TGI [8] [µM] | TGI [9] [µM] | TGI [10] [µM] | TGI [11] [µM] | TGI [12] [µM] | TGI [13] [µM] | TGI [14] [µM] | TGI [15] [µM] | TGI [16] [µM] | TGI [17] [µM] | TGI [18] [µM] | TGI [19] [µM] | TGI [20] [µM] |
| --- | --- | --- | --- | --- | --- | --- | --- | --- | --- | --- | --- | --- | --- | --- | --- | --- | --- | --- | --- | --- |
| O=c1cc(-c2ccccc2Cl)[nH]c2cc3c(cc12)OCO3 | > 20 | 2.33 | > 9.75 | 0.489 | > 100 | > 31.6 | 29.1 | 11.4 | > 63.3 | > 100 | 0.565 | 3.74 | > 100 | 24.3 | 5.24 | 0.195 | 0.496 | 0.689 | 0.381 | – |
| NC(=O)C(=CN1CC(=O)NC1=S)C(N)=O | > 100 | > 100 | > 100 | – | > 100 | > 100 | > 100 | > 100 | > 100 | > 100 | – | > 100 | > 100 | > 100 | > 100 | > 100 | > 100 | > 100 | – | > 100 |
| O=C(NNC(=O)c1ccccc1Cl)c1ccccc1O | > 100 | > 100 | > 100 | 99.2 | > 100 | > 100 | > 100 | > 100 | > 100 | > 100 | > 100 | > 100 | > 100 | > 100 | > 100 | > 100 | – | 77.1 | > 100 | > 100 |
| COC(=O)CNC(=O)Nc1cc(N2C(=O)ON3C2C(C)(C)N(O)C3(C)C)ccc1C (centres undefined) | > 100 | > 100 | > 100 | > 100 | > 100 | > 100 | > 100 | > 100 | > 100 | > 100 | – | > 100 | > 100 | > 100 | > 100 | > 100 | > 100 | > 100 | > 100 | > 100 |
| CC(C)(C)c1cc(C(C)(C)C)c2sc(=S)oc2c1O | 16.2 | > 40.8 | 26.2 | 20.5 | 27.6 | 18 | 19.7 | 32.8 | 27.6 | 27.4 | 33.7 | 24.3 | 20.2 | 32.4 | 18.2 | 29.6 | – | 34.2 | > 27 | 11.6 |
| Cc1cc(C)c(NS(=O)c2cccc([N+](=O)[O-])c2)c(C)c1 (centres undefined) | > 100 | > 100 | – | – | > 100 | > 100 | > 100 | – | > 100 | > 100 | > 100 | – | > 100 | > 100 | > 100 | > 100 | – | > 100 | > 100 | – |
| COc1ccc(Nc2nc3ccccc3nc2C(=O)O)cc1 | > 100 | > 100 | > 100 | > 100 | > 100 | > 100 | > 100 | > 100 | > 100 | > 100 | – | > 100 | > 100 | > 100 | > 100 | > 100 | 23.1 | – | > 100 | > 100 |
| COP(=O)(C(/C=C/c1ccccc1)OC(C)=O)[C@@H]1CCCC[C@H]1N(CC(C)(C)C)C(C)=O (some centres undefined) | 27.9 | 27.7 | 33.1 | 27.9 | > 100 | > 100 | 30.2 | > 100 | 53.1 | > 100 | – | 29.8 | 78.9 | 28.8 | 28.6 | 27.1 | 28.2 | 27 | 67.2 | 57.8 |
| c1ccc2c3nnc(c2c1)SCCSCCCSCCS3 | > 100 | – | 25.8 | > 100 | 76 | > 100 | > 100 | 97.5 | > 100 | > 100 | – | > 100 | > 100 | > 100 | > 100 | > 100 | > 100 | > 100 | > 100 | > 100 |
| CNC(=O)OCCN1c2ccccc2Sc2ccccc21 | > 100 | > 100 | > 100 | > 100 | > 100 | > 100 | > 100 | > 100 | > 100 | > 100 | – | – | > 100 | > 100 | > 100 | > 100 | > 100 | > 100 | > 100 | > 100 |
| Cc1cc(Br)cc(C)c1NC(=O)C(=O)C1C(=O)C(CC2C(=O)c3ccccc3C2=O)C(=O)CC1(C)C (centres undefined) | 92.7 | 74.5 | > 100 | > 100 | > 100 | > 100 | > 100 | > 100 | > 100 | > 100 | – | > 100 | > 100 | > 100 | > 100 | > 100 | > 100 | > 100 | 95.7 | > 100 |
